Measured values published in US6518284B2, “4-substituted piperidines” (Faes, Fabrica Espanola de Productos Quimicos Y …, priority 1999, dated 2003).
Like-named read-outs stand apart in the source and are kept apart here.

Experiments:
Type in all cases: binding
[1] = target: T1, serotonin reuptake receptors (5HT) / Serotonin uptake sites (transporters) (Rattus norvegicus, UniProt P31652); experiment: Affinity for serotonin reuptake sites, [3H]-paroxetine radioligand, rat cerebral cortex; conditions: Rat brain; read-out: K1 values, Serotonin uptake sites (transporters)
T1 construct: from tissue; host or cells: rat cerebral cortex
T1 sequence (P31652 whole entry): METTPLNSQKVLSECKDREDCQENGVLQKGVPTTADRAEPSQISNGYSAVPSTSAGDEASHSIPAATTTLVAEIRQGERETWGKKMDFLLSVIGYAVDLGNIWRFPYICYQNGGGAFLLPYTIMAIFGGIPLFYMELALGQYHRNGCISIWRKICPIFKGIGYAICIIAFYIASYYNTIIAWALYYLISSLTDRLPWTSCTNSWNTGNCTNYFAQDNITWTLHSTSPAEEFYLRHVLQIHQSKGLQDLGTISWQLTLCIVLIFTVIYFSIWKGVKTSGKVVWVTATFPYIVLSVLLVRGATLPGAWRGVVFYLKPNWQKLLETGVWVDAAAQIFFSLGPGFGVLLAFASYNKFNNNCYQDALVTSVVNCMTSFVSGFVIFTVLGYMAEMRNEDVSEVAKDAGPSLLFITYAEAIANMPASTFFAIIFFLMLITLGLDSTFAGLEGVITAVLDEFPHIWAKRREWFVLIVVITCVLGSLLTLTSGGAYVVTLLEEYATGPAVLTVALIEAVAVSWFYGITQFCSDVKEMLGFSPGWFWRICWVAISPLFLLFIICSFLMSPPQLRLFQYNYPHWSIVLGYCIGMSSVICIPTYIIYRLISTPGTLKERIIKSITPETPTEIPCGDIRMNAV
Source text: (§1) The pharmacological activity of the compounds of general formula (I) was determnined-using well-established in vitro and in vivo pharmacological processes.

[2] = target: noradrenaline (NA) reuptake receptors / Noradrenaline uptake sites (transporters) (Rattus norvegicus, UniProt Q63380); experiment: Affinity for noradrenaline reuptake sites, [3H]-nisoxetine radioligand, rat cerebral cortex; conditions: Rat brain, read-out: K1 values, Noradrenaline uptake sites (transporters)
noradrenaline (NA) reuptake receptors / Noradrenaline uptake sites (transporters), sequence (Q63380 1-617): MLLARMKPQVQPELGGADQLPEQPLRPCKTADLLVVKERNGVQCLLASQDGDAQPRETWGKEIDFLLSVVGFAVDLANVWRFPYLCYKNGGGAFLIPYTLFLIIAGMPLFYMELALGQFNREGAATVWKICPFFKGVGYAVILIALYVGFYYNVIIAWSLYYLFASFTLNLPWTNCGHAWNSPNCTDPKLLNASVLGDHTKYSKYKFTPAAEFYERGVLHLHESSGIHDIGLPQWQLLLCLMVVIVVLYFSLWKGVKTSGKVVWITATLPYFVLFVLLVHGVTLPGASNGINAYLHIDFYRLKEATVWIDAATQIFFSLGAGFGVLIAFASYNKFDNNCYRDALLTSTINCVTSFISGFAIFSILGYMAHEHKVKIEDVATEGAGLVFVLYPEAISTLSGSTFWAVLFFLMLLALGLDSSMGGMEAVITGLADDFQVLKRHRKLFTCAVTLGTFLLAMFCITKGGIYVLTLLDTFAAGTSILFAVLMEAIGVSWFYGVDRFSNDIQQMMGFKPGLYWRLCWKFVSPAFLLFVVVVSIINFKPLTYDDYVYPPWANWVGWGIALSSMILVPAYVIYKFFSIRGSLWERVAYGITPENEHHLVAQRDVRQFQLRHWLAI
Source text: as §1

[3] = target: T2, Dopamine uptake sites (transporters) (Rattus norvegicus, UniProt P23977); experiment: Affinity for dopamine uptake sites (transporters), rat brain; conditions: read-out: K1 values, Dopamine uptake sites (transporters)
T2 construct: Uptake sites (transporters); Rat brain; from tissue; host or cells: rat brain
T2 sequence (P23977 whole entry): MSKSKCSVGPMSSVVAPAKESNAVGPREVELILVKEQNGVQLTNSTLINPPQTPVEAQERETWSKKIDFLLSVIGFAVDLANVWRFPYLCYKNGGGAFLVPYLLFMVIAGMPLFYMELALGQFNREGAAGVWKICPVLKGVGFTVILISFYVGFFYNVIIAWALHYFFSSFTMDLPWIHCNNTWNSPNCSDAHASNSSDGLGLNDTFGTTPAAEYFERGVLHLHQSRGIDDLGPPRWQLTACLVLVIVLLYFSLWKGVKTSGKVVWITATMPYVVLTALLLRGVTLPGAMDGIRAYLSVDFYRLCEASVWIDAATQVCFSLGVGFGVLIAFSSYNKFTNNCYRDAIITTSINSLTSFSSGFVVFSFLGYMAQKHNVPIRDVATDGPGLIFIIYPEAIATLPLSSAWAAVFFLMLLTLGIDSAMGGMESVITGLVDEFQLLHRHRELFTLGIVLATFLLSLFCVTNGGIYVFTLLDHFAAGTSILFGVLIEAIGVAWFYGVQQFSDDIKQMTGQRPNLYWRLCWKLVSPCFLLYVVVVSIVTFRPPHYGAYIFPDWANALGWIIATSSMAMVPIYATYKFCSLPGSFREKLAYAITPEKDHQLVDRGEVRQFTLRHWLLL

| Compound | Ki [1] [nM] | Ki [2] [µM] | Ki ([3]; bounds given in μM) [µM] | Ki [3] [µM] | Ki ([2]; bounds given in μM) [µM] |
| --- | --- | --- | --- | --- | --- |
| Fc1ccccc1O[C@H](c1ccccc1)C1CCNCC1 [Compound F-98607-PD] | 4.2 | 0.0225 | > 1 |  |  |
| Fc1cccc(O[C@H](c2cccc(F)c2)C2CCNCC2)c1 [Compound F-98828-PD] | 9.99 | 0.128 |  | 0.113 |  |
| Fc1ccc(O[C@@H](c2ccccc2)C2CCNCC2)cc1 [Compound F-97814-TA] | 0.45 |  |  | 0.821 |  |
| FC(F)(F)c1ccc(O[C@H](c2ccccc2)C2CCNCC2)cc1 [Compound F-98408-TA] | 34.8 |  | > 1 |  | > 10 |
| Fc1ccccc1O[C@@H](c1ccccc1)C1CCNCC1 [Compound F-98718-PD] | 28.5 | 0.0414 |  | 0.52 |  |
| N#Cc1cccc(OC(c2ccccc2)C2CCNCC2)c1 (stereo not drawn) [Compound F-98716-TA] | 1.43 | 0.18 | > 1 |  |  |
| Fc1cccc(O[C@@H](c2cccc(F)c2)C2CCNCC2)c1 [Compound F-98829-PD] | 2.83 | 0.0175 | > 1 |  |  |
| Fc1cccc(O[C@@H](c2ccccc2)C2CCNCC2)c1 [Compound F-98212-TA] |  | 0.107 | > 1 |  |  |
| Fc1cccc(O[C@H](c2ccccc2)C2CCNCC2)c1 [Compound F-98214-TA] |  | 0.0135 |  | 0.461 |  |
| Clc1cccc(O[C@H](c2ccccc2)C2CCNCC2)c1 [Compound F-98620-TA] |  |  | > 1 |  |  |
| O=[N+]([O-])c1ccc(OC(c2ccccc2)C2CCNCC2)cc1 (stereo not drawn) [Compound F-98610-PD] | 15.1 |  | > 1 |  | > 1 |
| N#Cc1cccc(O[C@H](c2ccccc2)C2CCNCC2)c1 [Compound F-98715-TA] | 1.68 | 0.0869 |  | 0.11 |  |
| Fc1cc(F)cc(O[C@H](c2ccccc2)C2CCNCC2)c1 [Compound F-98814-TA] | 1.4 | 0.0248 | > 1 |  |  |
| Clc1cccc(O[C@@H](c2ccccc2)C2CCNCC2)c1 [Compound F-98616-TA] |  | 0.0558 | > 1 |  |  |
| Fc1cccc([C@@H](Oc2ccccc2F)C2CCNCC2)c1 [Compound F-98925-PD] | 27.6 | 0.0481 |  | 0.377 |  |
| Fc1cc(F)cc(O[C@@H](c2ccccc2)C2CCNCC2)c1 [Compound F-98822-TA] | 7.09 | 0.386 | > 1 |  |  |
| O=[N+]([O-])c1ccc(O[C@H](c2ccccc2)C2CCNCC2)cc1 [Compound F-98603-PD] | 0.63 |  | > 10 |  | > 1 |
| Fc1ccc(O[C@H](c2ccccc2)C2CCNCC2)cc1 [Compound F-97815-TA] | 45.9 | 1.45 |  | 0.253 |  |
| FC(F)(F)c1ccc(OC(c2ccccc2)C2CCNCC2)cc1 (stereo not drawn) [Compound F-98404-TA] | 14.9 |  | > 1 |  | > 10 |
| Fc1cccc([C@H](Oc2ccccc2F)C2CCNCC2)c1 [Compound F-98917-PD] | 4.3 | 0.0191 | > 1 |  |  |
